This note sets out measurements from ChEMBL document CHEMBL1201862, “PubChem BioAssay data set” (2004).

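1) Cells in 96-well plates. 2) Compound, 48 h, 5 concentrations. 3) Linear interpolation between surrounding doses. 4) Unreached endpoint = highest concentration. At the GI50, growth is halved.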 Active and inactive are the calls of the source. No stated cut-off is given here; in the data, active = GI50 up to about 1.1 µM and inactive = higher. Where only a bound is given, the exact number is not on record here.

Among the test systems are OVCAR-3; T47D; MDA-MB-231; M14; COLO 205; SN12C; DU-145; CAKI-1; Malme-3M; NCI/ADR-RES; SF-268; HCC 2998; OVCAR-8; OVCAR-5; A549; UO-31; PC-3; SK-OV-3; HCT-116.
Experiment in all cases: DTP human tumour cell line panel, 48 h

Regarding `CCOC(=O)c1cn(C)nc1N/C(C)=C\C(=O)c1ccccc1`, the GI50 with OVCAR-3 was > 100 µM (inactive); in the assay on T47D, > 100 µM (inactive); in the assay with MDA-MB-231, 20.9 µM (inactive); in the assay with M14, > 100 µM (inactive); with COLO 205, > 100 µM (inactive); with SN12C, > 100 µM (inactive). Also, the GI50 with DU-145, in the assay on CAKI-1, with Malme-3M, in the assay on NCI/ADR-RES, in the assay with SF-268 and in the assay on HCC 2998 was > 100 µM (inactive) throughout. In addition, the GI50 in the assay on OVCAR-8, with OVCAR-5, with A549, with UO-31, in the assay with PC-3 and in the assay with SK-OV-3 was > 100 µM (inactive) each time.
Regarding `COc1cc([C@@H]2c3cc4c(cc3[C@@H](NC(=O)c3cccc([N+](=O)[O-])c3)C3COC(=O)[C@@H]32)OCO4)cc(OC)c1O` (some centres undefined), the GI50 in the assay on OVCAR-3 is 3.34 µM (inactive); with M14 it was 0.621 µM (active); in the assay on HCT-116 it was 1.5 µM (inactive); with COLO 205, 4.66 µM (inactive); in the assay on SN12C, 0.211 µM (active); with CAKI-1 it was 0.237 µM (active). The concentration for 50% growth inhibition (GI50) with Malme-3M was 0.543 µM (active); in the assay on SF-268 it was 0.552 µM (active); in the assay on HCC 2998, 0.608 µM (active); in the assay on OVCAR-8 it was 0.721 µM (active); in the assay on OVCAR-5, 2.23 µM (inactive); in the assay with A549, 0.0442 µM (active). Also, the GI50 is 3.89 µM (inactive) in the assay with UO-31 and 0.329 µM (active) in the assay on SK-OV-3.
With `CN(C)C(=O)C(F)(F)C(c1ccccc1Br)C1C(=O)N(C)C(=O)N(C)C1=O` (centres undefined), the GI50 in the assay with OVCAR-3, with T47D, in the assay on MDA-MB-231, in the assay on M14, with HCT-116 and in the assay with COLO 205 was > 100 µM (inactive) in each case. Also, the GI50 in the assay on DU-145, in the assay with CAKI-1, in the assay with Malme-3M, with NCI/ADR-RES, in the assay with SF-268 and in the assay with HCC 2998 was > 100 µM (inactive) each time. The GI50 with OVCAR-8, with OVCAR-5, in the assay on A549, in the assay with UO-31, in the assay on PC-3 and in the assay on SK-OV-3 was > 100 µM (inactive) throughout.
As for `O=S(=O)(O)C1=C2Sc3ccccc3N=C2c2ccccc2C1`, the GI50 in the assay on OVCAR-3 is 17.5 µM (inactive); in the assay on M14, 12.7 µM (inactive); in the assay with HCT-116, 15.2 µM (inactive); in the assay on COLO 205, 16.5 µM (inactive); with SN12C it was 13.8 µM (inactive); in the assay with CAKI-1, 20.1 µM (inactive). In addition, the GI50 is 15.8 µM (inactive) in the assay on Malme-3M; 14.1 µM (inactive) in the assay with SF-268; 12.2 µM (inactive) in the assay with HCC 2998; 16.9 µM (inactive) in the assay on OVCAR-8; 20.2 µM (inactive) with OVCAR-5; 16.2 µM (inactive) with A549. Besides, the GI50 is 19.4 µM (inactive) with UO-31 and 29.2 µM (inactive) with SK-OV-3.

A word on the GI50: it is the concentration at which growth is held to half of that of the control.
